Results from PMC2989405 (Cell, 2009).

How the values were obtained:
rat MrgprA = biological target: T1, rat MrgprA (Rattus norvegicus, UniProt Q7TN49); assay: response of electroporated Mrgpr-deficient mouse DRG neurons; type: cell-based; settings: agonist
T1 sequence (Q7TN49 1-304): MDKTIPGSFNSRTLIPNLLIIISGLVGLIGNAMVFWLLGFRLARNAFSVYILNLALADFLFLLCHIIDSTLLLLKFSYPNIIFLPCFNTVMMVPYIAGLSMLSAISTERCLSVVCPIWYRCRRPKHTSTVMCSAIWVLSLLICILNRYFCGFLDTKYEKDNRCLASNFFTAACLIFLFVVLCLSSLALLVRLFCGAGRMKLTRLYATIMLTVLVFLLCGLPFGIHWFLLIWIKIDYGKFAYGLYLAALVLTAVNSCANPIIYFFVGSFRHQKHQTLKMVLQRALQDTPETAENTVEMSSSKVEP

MrgprA3 = biological target: T2, MrgprA3 (Mus musculus, UniProt Q91WW3); assay: calcium imaging; type: cell-based; settings: agonist; dose-response in figure
T2 sequence (Q91WW3 1-302): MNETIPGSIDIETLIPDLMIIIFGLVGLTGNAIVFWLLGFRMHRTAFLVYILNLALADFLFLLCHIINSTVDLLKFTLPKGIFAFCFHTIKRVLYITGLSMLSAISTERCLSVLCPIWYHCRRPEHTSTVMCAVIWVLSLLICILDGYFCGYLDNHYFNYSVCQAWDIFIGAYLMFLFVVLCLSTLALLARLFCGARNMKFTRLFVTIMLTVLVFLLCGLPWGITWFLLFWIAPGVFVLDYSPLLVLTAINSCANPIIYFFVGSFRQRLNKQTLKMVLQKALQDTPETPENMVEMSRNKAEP

Row | Structure (SMILES) | response of electroporated Mrgpr-deficient mouse DRG neurons (rat MrgprA) | calcium imaging (fura-2) in transfected HEK293 cells (MrgprA3)
1 | CCN(CC)CCCC(C)Nc1ccnc2cc(Cl)ccc12 (centres unmarked) [chloroquine] | Expression of rat MrgprA in Mrgpr-clusterΔ^−/− DRG neurons conferred CQ sensitivity upon them | –
2 | C=C[C@H]1CN2CC[C@H]1C[C@H]2[C@H](O)c1ccnc2ccc(OC)cc12 [quinine] | – | Unlike CQ, quinine weakly activates MrgprA3
